Reference: US20130203817A1, “Novel Inhibitors of LYN Kinase” (VASSA INFORMATICS, priority 2012, published 2013)

Tests used:
[1] = system: mesenchymal breast cancer lines; settings: at concentrations that inhibit LYN kinase activity; cited from earlier work
[2] = system: phosphorylated (activated) LYN; settings: BT549 cells, Western blot; cited from earlier work
[3] = target: Lyn(h) (Homo sapiens, UniProt P07948); experiment: Millipore kinase profiling, Lyn; format: biochemical; settings: VI201 at 100 μM
Procedure: (§1) The three compounds identified in Example 1 were tested for kinase activity at Millipore (Dundee UK). The compounds were shipped as 10 mM stocks in DMSO as per Millipore testing standards. The testing consisted of two initial phases:
(§2) (a) Profiling against a set of approximately 60 kinases, selected as representative of all kinases and current kinase drug targets, to determine the selectivity of the compounds; and, (b) IC50 testing against EGFR, the kinase target of the initial search template molecule.
(§3) In particular, compound VI201 inhibited three kinases, in one case restricting the activity to about 20% at 100 μM concentration (Table 1).

[4] = target: Pim-1(h) (Homo sapiens, UniProt P11309); experiment: Millipore kinase profiling, Pim-1; format: biochemical; settings: VI201 at 100 μM
Procedure: as §1, §2, §3

[5] = target: WNK3(h) (Homo sapiens, UniProt Q9BYP7); experiment: Millipore kinase profiling, WNK3; format: biochemical; settings: VI201 at 100 μM
Procedure: as §1, §2, §3

[6] = target: GSK3β kinase (Homo sapiens, UniProt P49841); experiment: Kinase profiling, GSK3β; format: biochemical; settings: VI201 at 100 μM
Procedure: as §1, §2

[7] = target: Abl kinase (BCR-Abl) (Homo sapiens, UniProt P00519); experiment: Kinase profiling, Abl; format: biochemical; settings: VI201 at 100 μM
Procedure: as §1, §2

Chain of Lyn(h) (P07948 1-491 isoform P07948-2): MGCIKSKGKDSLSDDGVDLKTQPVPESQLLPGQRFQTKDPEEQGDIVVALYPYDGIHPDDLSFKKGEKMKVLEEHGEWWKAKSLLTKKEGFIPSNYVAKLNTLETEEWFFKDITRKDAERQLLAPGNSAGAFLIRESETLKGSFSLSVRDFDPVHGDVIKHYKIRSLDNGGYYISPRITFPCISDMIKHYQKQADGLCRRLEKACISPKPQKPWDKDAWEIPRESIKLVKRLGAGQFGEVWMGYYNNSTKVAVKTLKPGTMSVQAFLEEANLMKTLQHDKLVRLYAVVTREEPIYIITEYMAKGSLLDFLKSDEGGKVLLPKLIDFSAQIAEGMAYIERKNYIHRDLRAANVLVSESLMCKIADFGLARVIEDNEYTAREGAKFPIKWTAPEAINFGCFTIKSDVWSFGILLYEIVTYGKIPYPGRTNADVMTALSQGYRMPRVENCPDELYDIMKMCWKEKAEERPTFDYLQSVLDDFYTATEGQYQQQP
Chain of WNK3(h) (Q9BYP7 whole entry): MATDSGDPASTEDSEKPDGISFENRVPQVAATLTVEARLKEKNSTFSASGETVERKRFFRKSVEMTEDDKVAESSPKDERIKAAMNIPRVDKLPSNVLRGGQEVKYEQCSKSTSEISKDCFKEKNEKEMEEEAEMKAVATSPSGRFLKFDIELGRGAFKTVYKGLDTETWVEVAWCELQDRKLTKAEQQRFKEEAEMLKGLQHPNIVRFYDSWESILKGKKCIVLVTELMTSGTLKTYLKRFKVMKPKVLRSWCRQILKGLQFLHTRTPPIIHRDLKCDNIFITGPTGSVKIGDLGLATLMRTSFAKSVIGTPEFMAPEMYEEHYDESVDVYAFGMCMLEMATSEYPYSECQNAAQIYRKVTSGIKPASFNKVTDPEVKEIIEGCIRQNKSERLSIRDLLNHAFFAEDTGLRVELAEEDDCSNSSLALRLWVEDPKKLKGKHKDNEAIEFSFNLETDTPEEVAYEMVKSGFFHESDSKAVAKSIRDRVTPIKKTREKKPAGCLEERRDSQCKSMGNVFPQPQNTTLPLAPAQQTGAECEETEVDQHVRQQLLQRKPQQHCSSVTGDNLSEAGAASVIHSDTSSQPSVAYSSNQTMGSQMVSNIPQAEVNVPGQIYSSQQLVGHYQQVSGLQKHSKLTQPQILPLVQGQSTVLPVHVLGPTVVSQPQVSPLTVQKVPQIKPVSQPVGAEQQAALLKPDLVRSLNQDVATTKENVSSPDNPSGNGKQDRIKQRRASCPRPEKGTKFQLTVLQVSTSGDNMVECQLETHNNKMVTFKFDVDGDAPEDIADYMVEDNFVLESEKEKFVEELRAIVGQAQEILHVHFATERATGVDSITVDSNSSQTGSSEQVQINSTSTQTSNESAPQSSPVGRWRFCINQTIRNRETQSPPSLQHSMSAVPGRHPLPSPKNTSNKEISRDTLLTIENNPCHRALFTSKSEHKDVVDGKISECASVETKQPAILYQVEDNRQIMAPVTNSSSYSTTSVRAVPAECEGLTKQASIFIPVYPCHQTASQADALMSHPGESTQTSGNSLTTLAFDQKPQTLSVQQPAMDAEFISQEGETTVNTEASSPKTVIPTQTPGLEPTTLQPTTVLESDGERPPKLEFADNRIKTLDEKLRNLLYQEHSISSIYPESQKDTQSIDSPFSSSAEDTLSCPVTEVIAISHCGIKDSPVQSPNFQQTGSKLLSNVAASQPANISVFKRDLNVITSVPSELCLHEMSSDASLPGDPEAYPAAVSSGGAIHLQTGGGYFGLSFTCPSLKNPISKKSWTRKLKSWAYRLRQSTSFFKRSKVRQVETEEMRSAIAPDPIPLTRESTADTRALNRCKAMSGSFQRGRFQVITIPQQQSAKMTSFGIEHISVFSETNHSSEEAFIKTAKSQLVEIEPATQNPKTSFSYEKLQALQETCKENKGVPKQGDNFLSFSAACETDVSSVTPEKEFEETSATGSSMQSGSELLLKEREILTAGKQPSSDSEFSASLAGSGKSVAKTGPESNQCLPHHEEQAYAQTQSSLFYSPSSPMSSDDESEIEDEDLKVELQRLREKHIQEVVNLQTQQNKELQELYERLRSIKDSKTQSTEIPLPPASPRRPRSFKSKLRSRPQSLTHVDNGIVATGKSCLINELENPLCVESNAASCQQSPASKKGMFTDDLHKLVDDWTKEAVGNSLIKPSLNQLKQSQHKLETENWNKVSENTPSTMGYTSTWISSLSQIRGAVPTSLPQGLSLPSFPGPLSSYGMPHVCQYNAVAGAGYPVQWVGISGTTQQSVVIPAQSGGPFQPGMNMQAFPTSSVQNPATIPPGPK
Chain of Abl kinase (BCR-Abl) (P00519 27-1130 limits assumed): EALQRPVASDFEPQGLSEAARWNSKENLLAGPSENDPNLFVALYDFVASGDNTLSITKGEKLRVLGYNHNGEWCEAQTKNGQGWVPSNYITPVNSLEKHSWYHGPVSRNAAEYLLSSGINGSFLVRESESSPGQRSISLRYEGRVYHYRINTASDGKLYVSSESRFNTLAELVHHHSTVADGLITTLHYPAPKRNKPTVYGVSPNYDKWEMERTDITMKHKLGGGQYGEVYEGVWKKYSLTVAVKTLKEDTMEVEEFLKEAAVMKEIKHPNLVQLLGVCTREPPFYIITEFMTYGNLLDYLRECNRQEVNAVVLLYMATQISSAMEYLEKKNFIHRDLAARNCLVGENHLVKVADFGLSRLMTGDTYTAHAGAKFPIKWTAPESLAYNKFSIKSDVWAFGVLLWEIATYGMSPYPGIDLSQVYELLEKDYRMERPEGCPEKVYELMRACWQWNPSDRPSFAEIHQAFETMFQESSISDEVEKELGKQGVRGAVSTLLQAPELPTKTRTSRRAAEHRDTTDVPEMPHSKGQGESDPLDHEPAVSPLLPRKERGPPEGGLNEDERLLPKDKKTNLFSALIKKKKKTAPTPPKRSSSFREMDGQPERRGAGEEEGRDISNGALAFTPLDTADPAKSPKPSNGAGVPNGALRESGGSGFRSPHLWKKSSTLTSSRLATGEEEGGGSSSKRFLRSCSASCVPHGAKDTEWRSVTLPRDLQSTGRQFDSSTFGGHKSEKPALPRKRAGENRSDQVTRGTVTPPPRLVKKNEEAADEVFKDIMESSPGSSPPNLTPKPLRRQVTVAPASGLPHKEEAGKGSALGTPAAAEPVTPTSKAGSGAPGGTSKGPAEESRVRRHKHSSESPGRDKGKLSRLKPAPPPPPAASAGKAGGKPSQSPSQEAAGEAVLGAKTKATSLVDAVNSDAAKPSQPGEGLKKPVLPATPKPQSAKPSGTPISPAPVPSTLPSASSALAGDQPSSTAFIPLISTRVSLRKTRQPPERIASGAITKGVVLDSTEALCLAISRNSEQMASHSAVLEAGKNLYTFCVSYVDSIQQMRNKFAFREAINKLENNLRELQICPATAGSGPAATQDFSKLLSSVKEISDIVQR
Chain of GSK3β kinase (P49841 whole entry): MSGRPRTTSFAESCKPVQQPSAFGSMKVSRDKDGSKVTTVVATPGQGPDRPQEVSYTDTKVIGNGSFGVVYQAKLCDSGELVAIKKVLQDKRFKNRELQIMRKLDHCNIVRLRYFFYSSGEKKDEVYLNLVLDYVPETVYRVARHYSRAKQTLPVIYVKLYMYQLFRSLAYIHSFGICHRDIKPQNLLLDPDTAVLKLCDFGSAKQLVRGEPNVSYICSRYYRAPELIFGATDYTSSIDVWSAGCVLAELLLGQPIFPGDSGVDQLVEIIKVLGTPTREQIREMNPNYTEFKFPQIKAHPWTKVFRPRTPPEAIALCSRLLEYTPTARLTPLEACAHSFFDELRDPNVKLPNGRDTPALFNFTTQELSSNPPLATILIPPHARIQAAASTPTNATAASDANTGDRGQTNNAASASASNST
Chain of Pim-1(h) (P11309 whole entry): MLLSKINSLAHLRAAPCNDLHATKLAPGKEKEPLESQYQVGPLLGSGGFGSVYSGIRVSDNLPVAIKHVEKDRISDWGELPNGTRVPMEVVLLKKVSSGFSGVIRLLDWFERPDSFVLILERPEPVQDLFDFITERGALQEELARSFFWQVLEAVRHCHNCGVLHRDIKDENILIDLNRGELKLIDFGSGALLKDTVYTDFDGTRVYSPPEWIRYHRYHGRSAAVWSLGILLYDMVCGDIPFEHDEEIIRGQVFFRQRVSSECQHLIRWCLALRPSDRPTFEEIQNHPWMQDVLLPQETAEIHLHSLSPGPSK

inhibition of LYN kinase [3] [%] | inhibition of Pim-1 kinase [4] [%] | inhibition of WNK3 kinase [5] [%] | inhibition of GSK3β kinase [6] [%] | inhibition of Abl kinase (BCR-Abl) [7] [%] | Compound | cell invasion [1] | cell proliferation [1] | phosphorylated (activated) LYN [2]
– | – | – | – | – | Cc1nc(Nc2ncc(C(=O)Nc3c(C)cccc3Cl)s2)cc(N2CCN(CCO)CC2)n1 [Dasatinib, N-(2-chloro-6-methylphenyl)-2-[[6-[4-(2-hydroxyethyl)-1-piperazinyl]-2-methyl-4-pyrimidinyl]amino]-5-thiazole carboxamide] | blocked invasion | not proliferation | decreased phosphorylated (activated) LYN
82 | 44 | 37 | 26 | 5 | N-(2,3-dimethylphenyl)-3-(3-(pyridin-2-yl)-1,2,4-thiadiazol-5-yl)propanamide [VI201] | – | – | –
